One molecule from patent publication US20240115545A1, “PHARMACEUTICAL COMPOSITION CONTAINING B-LAPACHONE AS ACTIVE INGREDIENT FOR PREVENTION OR TREATMENT OF CHOLESTATIC LIVER DISEASE” (CUROME BIOSCIENCES CO., LTD., priority 2020, published 2024) can be followed below.

Structures are written as SMILES.

For test [1], the system named is DDC-induced cholestatic liver disease mice. As to the kind of experiment: Sirius Red and Masson's trichrome staining of liver connective tissue, DDC-induced cholestatic liver disease mice. Particulars: 40 and 80 mg/kg in diet, DDC 14 days. Type of test: in vivo. Here is the method:
DDC-induced cholestatic liver disease mouse animal models were prepared according to the method of Elisa Pose et al. by using 8-week-old C57BL/6 male mice (Samtako, Korea). Briefly, cholestatic liver disease was induced by feeding a standard rodent diet supplemented with 0.1% (w/w) DDC for 7 or 14 days. The 12-hour light and dark cycle was maintained and animals were allowed to free access to water. The standard rodent diet included medium wheat, wheat, corn, and corn gluten flour, and soybean oil (14% protein). All animal related procedures were reviewed and approved by the Institutional Animal Care and Use Committee of Korea Research Institute of Bioscience and Biotechnology (KRIBB), KRIBB-AEC-20165). The tissue staining of the cholestatic liver disease animal models was measured through H&E staining (basic tissue staining), Sirius Red staining (collagen staining), and Masson's trichrome staining (collagen, cytoplasm, muscle fibers, etc.), and the tissue staining was measured by a skilled researcher. To investigate the preventive effect of β-Lapachone (BL) on cholestatic liver disease, the mice were fed a diet with 0 (DDC-vehicle), 40 mg/kg (DDC-BL40) and 80 mg/kg (DDC-BL80) 3 days before DDC treatment (total 17 days) and, after 3 days, were fed a diet with DDC (total 14 days). […]

Test [2] deals with fibrosis-related genes. As to the kind of experiment: mRNA levels of fibrosis-related genes in liver tissue (Example 3.2). Type of test: in vivo, mice. Particulars: β-lapachone with DDC in diet, 7 days; depending on the concentration. Here is the method: (§1) After 8-week-old C57BL/6 male mice (Samtako, Korea) were divided into each group (=6), the mice were fed a diet with normal (vehicle), control (DDC), DDC+β-lapachone 20 mg/kg, DDC+β-lapachone 40 mg/kg, DDC+β-lapachone 80 mg/kg, DDC+β-lapachone 100 mg/kg, and positive control DDC+ursodeoxycholic acid 100 mg/kg, and DDC+obeticholic acid 30 mg/kg (total 7 days). After 7 days of treatment, the mice were sacrificed and then the blood was collected from the heart. Thereafter, the levels of alanine aminotransferase (ALT), aspartate aminotransferase (AST), alkaline phosphatase (ALP), and bilirubin, which are blood indexes, were analyzed, and shown in FIG. 4.
After the cholestatic liver disease mouse animal models in Example 3.1 were sacrificed and the liver tissue was harvested therefrom, the mRNA levels of fibrosis-related genes were measured by a method similar to the method in Example 2.3.
In the cholestatic liver disease mouse models, the bile ducts were damaged and fibrosis was induced, by DDC, and accordingly, the transcriptional levels of collagen type 1 alpha 1 (Co|1α1), transforming growth factor beta 1 (TGF-β1), and collagen type I alpha 2 (Co|1α2), which are important factors in the development of fibrosis, were investigated, and the results are shown in FIG. 5.

Test [3] concerns inflammation-related genes. The test is described as follows: mRNA levels of inflammatory cytokine genes in liver tissue (Example 3.3). In kind it is in vivo, mice. Conditions: β-lapachone with DDC in diet, 7 days. Here is the method: as §1
In the cholestatic liver disease, the inflammation in the portal vein and damage to the bile ducts in the liver occur chronically, resulting in cholestasis and liver fibrosis. The mRNA levels of inflammatory cytokine genes in the liver tissue of the cholestatic liver disease mouse animal models obtained by the same method as in Example 3.1 were measured, and shown in FIG. 6.

For test [4], the system named is Poly I:C-induced cholestatic liver disease animal models. As to the kind of experiment: Blood AST, ALT, ALP in Poly I:C-induced primary biliary cirrhosis mice (Example 5). Type of test: in vivo. On the procedure:
Of cholestatic liver diseases, primary biliary cirrhosis (PBC) may be introduced to a similar state by using a viral RNA mimic and the Toll-like receptor polyinosinic-polycytidylic acid (Poly I:C). After 8-week-old C57BL/6 male mice (Samtako, Korea) were divided into each group (=6), each experimental group excluding a normal group was intraperitoneally administered 5 mg/kg Poly I:C twice a week for 8 weeks. Thereafter, the mice were fed a diet with control (vehicle), β-lapachone 40 mg/kg, β-lapachone 80 mg/kg, and positive control ursodeoxycholic acid 100 mg/kg and obeticholic acid 30 mg/kg for 8 weeks. On the 16th week of treatment, the experiment was ended, and the mice were sacrificed and then the blood was collected from the heart.

Test [5] has as its system DSS-induced inflammatory bowel disease mice. As to the kind of experiment: Survival rate, body weight and colitis score in DSS-induced acute colitis mice (Example 6.1). In kind it is in vivo. Particulars: for mice died: 14th day of the experiment (DSS alone 70%). Here is the method:
Dextran sodium sulfate (DSS)-induced acute colitis mouse models were constructed using 8-week-old C57BL/6 female mice (Samtako, Korea).
After 8-week-old C57BL/6 female mice (Samtako, Korea) were divided into each group (=10), each experimental group was fed a standard rodent diet supplemented with 3% (w/w) DSS in drinking water for the first 5 days to induce acute colitis and orally administered control (vehicle), β-lapachone 40 mg/kg, and β-lapachone 80 mg/kg for 14 days.
All animal-related procedures were discussed and approved by the Institutional Animal Care and Use Committee of the Hanyang University. The survival rate over time is shown in FIG. 9, and the change rate in body weight of mice in each experimental group was measured and shown in FIG. 10A. The fecal occult bleeding per rectum, total bleeding loss, and fecal concentration were measured daily.

[6] abbreviates: β-lapachone 40, 80 mg/kg in diet for 8 weeks after 8 weeks Poly I:C.

As to `CC1(C)CCC2=C(O1)c1ccccc1C(=O)C2=O` [β-lapachone], in test [1], the “formation of connective tissues / fibrosis progression (Sirius Red and Masson's trichrome staining)” value was “inhibited such fibrosis progression”. For the same molecule, in test [2], the “transcriptional level of Co|1α1 in liver” value is “inhibited”, the “transcriptional level of Co|1α2 in liver” value is reported as “inhibited” and the “transcriptional level of TGF-β1 in liver” value was “inhibited”. For the same molecule, in test [3], the “transcriptional level of IL-1β in liver” value is recorded as “inhibited” and the “transcriptional level of TNFα in liver” value is reported as “inhibited”. The “effect on AST, ALT, ALP compared with comparative substances” value in test [4] (vs ursodeoxycholic acid 100 mg/kg and obeticholic acid 30 mg/kg, 8 weeks) was “excellent effect compared with the comparative substances ursodeoxycholic acid (UDCA) and obeticholic acid (OCA)”. In test [4] (setting [6]), the “ALP in the blood increased by Poly I:C” value is reported as “inhibited”, the “ALT in the blood increased by Poly I:C” value was “inhibited” and the “AST in the blood increased by Poly I:C” value is given as “inhibited”. In addition, the mice died in test [5] (40 mg/kg orally for 14 days) is on record as 50%. In addition, the “body weight recovered, relative to initial body weight” value in test [5] (80 mg/kg orally (DSS alone reduced to 75% on Day 8)) is listed as “up to 90%”. This molecule also returned a mice died in test [5] (80 mg/kg orally for 14 days) of 20%. Further, in test [5] (40 and 80 mg/kg orally, 14 days), the colitis score result is on record as “reduced depending on the treatment concentration”. Moreover, in test [5] (groups treated with β-lapachone 40 and 80 mg/kg orally), the “body weight reduction by DSS” value is “inhibited”.
